Assay results published in PMC11901561, “Free Radical Scavenging Activity and Inhibition of Enzyme-Catalyzed Oxidation by trans-aryl-Palladium Complexes” (Molecules, 2025).
Like-named read-outs stand apart in the source and are kept apart here.

How the values were obtained:
[1] = flavonoid comparison ref 63; read-out: IC50 DPPH, literature value; cited from earlier work
[2] = ABTS radical scavenging test (spectrophotometric, 734 nm); settings: for Radical scavenging activity against ABTS•+: inhibition curve did not converge, EC50 could not be calculated
Protocol: (§1) Radical scavenging capacity, as an indicator of the antioxidant capacity of compounds against 1,1-diphenyl-2-picrylhydrazyl (DPPH) free radicals and 2,2-azinobis (3-ethyl- enzothiazoline-6-sulfonic acid), ABTS•+ radical cations, was determined using a spectrophotometric assay. Antiradical capacity analysis was performed either on pure MeOH for ABTS or the mixture of MeOH/distilled water (90:10 v/v) for DPPH. For both ABTS and DPPH assays, the stock solutions of complexes were prepared in DMSO. Quercetin was used as an antioxidant standard in the DPPH and ABTS•+ scavenging tests. EC50 is defined as the concentration of compound (µM) required to scavenge 50% of ABTS•+ or DPPH radicals. EC50 values were estimated using nonlinear regression. A lower EC50 value indicates higher antiradical activity.
The ABTS assay was based on the method described by Re et al.. For the generation of ABTS•+ radicals, sodium persulfate (2.45 mM) aqueous solution was mixed with ABTS (7 mM) and incubated overnight in the dark to obtain a dark colored solution. The stock solution of ABTS•+ was then diluted by adding pure methanol (100%) to obtain an absorbance of 0.70 (±0.02) at 734 nm at 30 °C. An aliquot of 0.02 mL of tested compound was added to 1.98 mL of ABTS•+, and the decrease in absorbance was monitored at 734 nm after 30 min [80]. During this reaction, the blue green ABTS radical cation is converted back into its colorless neutral form in the presence of the potential antioxidant molecule. A control consisted of 0.02 mL of DMSO in 1.98 mL of ABTS•+ solution. The reducing capacity was determined according to the following formula:% inhibition = (A control − A Sample) × 100/A Control (1)
(§2) Results were expressed as mean values ± standard deviation (SD). All measurements were replicated three times. EC50 values were calculated with GraphPad Prism 6.0 (GraphPad Software, San Diego, CA, USA) under the application of the function “log (inhibitor) versus normalized response-variable slope” after converting the concentrations into their decimal logarithm. The results were analyzed using Student’s test and a two-way analysis of variance (ANOVA), and a multiple comparison of all data was performed using Tukey’s multiple comparisons test. p < 0.0001 was considered significant.

[3] = DPPH radical scavenging test (spectrophotometric, 517 nm); settings: for EC50 (g Antioxidant/kg DPPH°): EC50 expressed as weight of antioxidant per kg of DPPH radical; for EC50: concentration scavenging 50% of DPPH, 90% MeOH, 30 min, mean ± SD
Protocol: as §1, with “EC50 is defined as the concentration of compound (µM) required to scavenge 50% of ABTS•+ or DPPH radicals.” left out
The DPPH assay was performed according to the method developed by Brand-Williams et al. slightly modified. A solution of 1 mM DPPH in 90% (v/v) methanol was stirred for 40 min. The absorbance of the solution was adjusted to 0.650 ± 0.020 at 517 nm using fresh 90% (v/v) methanol. Then, 0.02 mL of quercetin taken as a standard or sample was mixed with 1.98 mL of DPPH solution and incubated for 30 min in the dark covered with aluminum foil. When reacting with an antioxidant, the DPPH• radical is converted into DPPH, and its color changes from purple to yellow. The antioxidant effect may be easily evaluated by observing the decrease in visible absorption. The absorbance decrease was monitored at 517 nm after 30 min of incubation with a Hewlett Packard 8453 spectrophotometer. The control consisted of 0.02 mL of DMSO in 1.98 mL of DPPH solution. A similar formula (Equation (1)) was applied to determine the DPPH radical scavenging activity.
as §2

[4] = Antiradical efficiency (kinetic study via DPPH assay); settings: for AE (antiradical efficiency): AE = 1/EC50.TEC50, DPPH; for Classification of antiradical efficiency: according to Sanchez-Moreno, from AE value; for TEC50: time needed to reach the steady state at the EC50 concentration, DPPH
Protocol: The reaction between potential antioxidants and the oxidized substrate requires a steady state which will depend on several parameters, such as the reaction time. The time needed to reach the steady state, at the concentration corresponding to EC50, is more and more frequently used and can be defined as TEC50. In brief, TEC50 was determined by plotting the recorded absorbance during the period for the EC50 concentration for the considered antioxidant compound. […] The antiradical efficiency of compounds and their classification are considered according to the work of Sanchez-Moreno [69].

[5] = molecular target: T1, horseradish peroxidase (HRP) (Armoracia rusticana, UniProt P00433); assay: biochemical; format: biochemical; settings: for EC50: HRP-H2O2/L-012 system, pH 7.5, 37 °C, 30 min, read-out: EC50 chemiluminescence assay; for Effect on chemiluminescence at lowest concentrations: 1, 5, and 10 µM, HRP-H2O2/L-012
T1 sequence (P00433 31-338 limits assumed): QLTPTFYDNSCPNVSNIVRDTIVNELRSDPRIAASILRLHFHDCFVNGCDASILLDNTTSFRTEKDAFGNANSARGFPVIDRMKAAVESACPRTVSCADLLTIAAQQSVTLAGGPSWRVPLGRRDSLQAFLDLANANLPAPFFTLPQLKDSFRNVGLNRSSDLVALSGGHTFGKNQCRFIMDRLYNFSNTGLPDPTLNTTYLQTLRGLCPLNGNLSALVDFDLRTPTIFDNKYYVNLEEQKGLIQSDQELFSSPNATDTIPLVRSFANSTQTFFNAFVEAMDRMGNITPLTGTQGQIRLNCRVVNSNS
Protocol: To investigate the effect of selected palladium (II)-based complexes on the peroxidase (HRP)-catalyzed oxidation of the chemiluminescent probe (L-012), in the presence of hydrogen peroxide (H2O2), the chemiluminescence technique was used. Briefly, plate-reader-based luminescence measurements were performed in white 96-well plates using a Fluoroskan Ascent FL microplate reader (Thermo Labsystems, Vantaa, Finland), with the temperature set at 37 °C. To 5 µL of a stock solution of HRP (1 mg/mL) in phosphate buffer (pH = 7.5) per well, we successively added 10 µL of L-012 (aqueous solution, 0.84 mmoL) and 2 µL of tested compound in 163 µL of buffer solution. The reaction was triggered by adding 20 µL hydrogen peroxide (0.19 µM) to reach the final volume of 200 µL. The light emission, produced from oxidation of L-012 by HRP/H2O2 system, in the presence or absence of the tested palladium complex, was recorded in kinetic mode for 30 min. Inhibition of the emitted light due to tested complexes was associated with higher activity. The following formula was applied to calculate the inhibiting activity of complexes towards the oxidation of L-012 catalyzed by the HRP/H2O2 system:% inhibition = (L control − L Sample) x 100/L Control
as §2

[6] = concentration scavenging 50% of ABTS•+, MeOH, 30 min, mean ± SD

Compound	IC50 [1]	EC50 [2, 6]	EC50 (g Antioxidant/kg DPPH°) [3]	EC50 [3]	AE (antiradical efficiency) [4]	Classification of antiradical efficiency [4]	TEC50 [4]	EC50 [5]	Radical scavenging activity against ABTS•+ [2]	Radical scavenging activity against ABTS•+ ([2]; listed as Cisplatin (CisPt))	Radical scavenging activity against DPPH ([3]; inhibition curve did not converge, EC50 could not be calculated)	Effect on chemiluminescence at lowest concentrations [5]	Activity against the ABTS radical ([2]; 100 µM)	EC50 ([2]; value given in text in mM)	Activity against the DPPH radical ([3]; 100 µM)	IC50 ([3]; value given in text in mM)
Oc1cc(O)c2c(c1)O[C@H](c1ccc(O)c(O)c1)[C@H](O)C2 [epicatechin]	15.7 µM	–	–	–	–	–	–	–	–	–	–	–	–	–	–	–
CC(=O)Oc1cc[c]([Pd@SP2]([Cl])([PH](c2ccccc2)(c2ccccc2)c2ccccc2)[PH](c2ccccc2)(c2ccccc2)c2ccccc2)cc1 [Complex 6, Trans-Chloro(4-acethoxyphenyl)bis(triphenylphosphine)Palladium]	–	0.0458 ± 0.00095 mM	573.94 ± 40 g Antioxidant/kg DPPH°	14.3 ± 0.92 µM	0.0328 ×10^−3	Low	53 min	6.46 ± 2.28 µM	–	–	–	–	–	–	–	–
N.N.[Cl][Pt][Cl] [CisPt, Cisplatin, reference compound]	–	–	–	–	–	–	–	–	no antioxidant activity	does not show any radical scavenging activity	no antioxidant activity	–	–	–	–	–
COc1cc[c]([Pd@SP2]([Br])([PH](c2ccccc2)(c2ccccc2)c2ccccc2)[PH](c2ccccc2)(c2ccccc2)c2ccccc2)cc1 [Complex 2, Trans-Bromo(4-methoxyphenyl)bis(triphenylphosphine)Palladium]	–	0.00701 ± 0.00098 mM	–	7.09 ± 0.94 µM	0.2155 ×10^−3	Low	16 min	1.48 ± 0.71 µM	–	–	–	–	–	–	–	–
[Cl][Pd@SP2]([c]1ccccc1)([PH](c1ccccc1)(c1ccccc1)c1ccccc1)[PH](c1ccccc1)(c1ccccc1)c1ccccc1 [Complex 9, Trans-Chloro(phenyl)bis(triphenylphosphine)Palladium]	–	0.0103 ± 0.00064 mM	271.97 ± 36 g Antioxidant/kg DPPH°	7.33 ± 0.97 µM	0.1019 ×10^−3	Low	36 min	39.2 ± 17 µM	–	–	–	weak effect	–	–	–	–
COc1cc[c]([Pd@SP2]([I])([PH](c2ccccc2)(c2ccccc2)c2ccccc2)[PH](c2ccccc2)(c2ccccc2)c2ccccc2)cc1 [Complex 1, Trans-Iodo(4-methoxyphenyl)bis(triphenylphosphine)Palladium]	–	0.00578 ± 0.00098 mM	49.31 ± 39 g Antioxidant/kg DPPH°	1.14 ± 0.9 µM	1.8437 ×10^−3	–	11 min	3.56 ± 1.87 µM	–	–	–	–	–	–	–	–
[I][Pd]([c]1ccccc1)([PH](c1ccccc1)(c1ccccc1)c1ccccc1)[PH](c1ccccc1)(c1ccccc1)c1ccccc1 [Complex 7, Trans-Iodo(phenyl)bis(triphenylphosphine)Palladium]	–	0.00614 ± 0.00094 mM	1882.11 ± 37 g Antioxidant/kg DPPH°	45.1 ± 0.95 µM	0.0081 ×10^−3	Low	66 min	67 ± 20.1 µM	–	–	–	weak effect	good activity	–	–	–
CC(=O)Oc1cc[c]([Pd@SP2]([Br])([PH](c2ccccc2)(c2ccccc2)c2ccccc2)[PH](c2ccccc2)(c2ccccc2)c2ccccc2)cc1 [Complex 5, Trans-Bromo(4-acethoxyphenyl)bis(triphenylphosphine)Palladium]	–	0.1358 ± 0.00025 mM	653.57 ± 20 g Antioxidant/kg DPPH°	15.5 ± 0.96 µM	0.0264 ×10^−3	Low	58 min	5.28 ± 2.3 µM	–	–	–	–	–	0.135 mM	–	–
[Br][Pd@SP2]([c]1ccccc1)([PH](c1ccccc1)(c1ccccc1)c1ccccc1)[PH](c1ccccc1)(c1ccccc1)c1ccccc1 [Complex 8, Trans-Bromo(phenyl)bis(triphenylphosphine)Palladium]	–	0.0143 ± 0.00092 mM	260.96 ± 40 g Antioxidant/kg DPPH°	6.64 ± 0.91 µM	0.0955 ×10^−3	Low	40 min	33.3 ± 11.7 µM	–	–	–	weak effect	–	–	good activity	–
CC(=O)Oc1cc[c]([Pd@SP2]([I])([PH](c2ccccc2)(c2ccccc2)c2ccccc2)[PH](c2ccccc2)(c2ccccc2)c2ccccc2)cc1 [Complex 4, Trans-Iodo(4-acethoxyphenyl)bis(triphenylphosphine)Palladium]	–	0.0109 ± 0.00095 mM	82,194.89 ± 33 g Antioxidant/kg DPPH°	1840.8 ± 0.44 µM	0.0002 ×10^−3	Low	78 min	11.3 ± 3.3 µM	–	–	–	weak effect	–	–	–	1.84 mM
COc1cc[c]([Pd@SP2]([Cl])([PH](c2ccccc2)(c2ccccc2)c2ccccc2)[PH](c2ccccc2)(c2ccccc2)c2ccccc2)cc1 [Complex 3, Trans-Chloro(4-methoxyphenyl) bis(triphenylphosphine)Palladium]	–	0.0111 ± 0.00094 mM	73.49 ± 38 g Antioxidant/kg DPPH°	1.9 ± 0.87 µM	0.2160 ×10^−3	Low	–	5.8 ± 2.6 µM	–	–	–	–	–	–	–	–
